Active and inactive are the calls of the source. No cut-off for these calls is given here.
Tests used:
Rattus norvegicus = test: Effect on stimulation of immature rat uterus in dose limit of 0.1 and 10 mg/kg; No effect but lowers circulating cholesterol; assay type: functional, organism-based; design: dose 10 mg/kg
Estrogen receptor = molecular target: T1, Estrogen receptor (Homo sapiens, UniProt P03372); test: Binding affinity for Estrogen receptor alpha
T1 sequence (P03372 whole entry): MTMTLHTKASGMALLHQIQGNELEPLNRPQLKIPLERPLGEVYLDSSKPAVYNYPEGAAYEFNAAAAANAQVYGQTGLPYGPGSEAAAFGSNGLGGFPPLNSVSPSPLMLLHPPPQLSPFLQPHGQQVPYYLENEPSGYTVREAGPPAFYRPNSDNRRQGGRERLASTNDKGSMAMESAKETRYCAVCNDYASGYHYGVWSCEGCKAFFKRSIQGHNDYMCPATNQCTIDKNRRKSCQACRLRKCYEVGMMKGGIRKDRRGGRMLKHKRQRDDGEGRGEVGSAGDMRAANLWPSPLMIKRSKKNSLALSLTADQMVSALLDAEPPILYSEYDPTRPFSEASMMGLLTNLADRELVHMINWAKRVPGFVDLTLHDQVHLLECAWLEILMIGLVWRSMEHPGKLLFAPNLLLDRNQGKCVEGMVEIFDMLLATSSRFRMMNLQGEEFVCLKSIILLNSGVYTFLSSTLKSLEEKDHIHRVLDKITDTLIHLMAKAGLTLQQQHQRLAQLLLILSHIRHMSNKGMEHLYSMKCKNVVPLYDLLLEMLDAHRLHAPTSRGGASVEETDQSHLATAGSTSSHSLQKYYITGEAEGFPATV

[1] = Effect on bone density of totalhip was determined in postmenopausal women; assay type: functional, Homo sapiens, Bone element
Homo sapiens [2] = species: Homo sapiens; test: Effect on bone density in the lumber spine was determined in postmenopausal women; assay type: functional
Homo sapiens [3] = species: Homo sapiens; test: Effect on spine fractures in postmenopausal women with osteoporosis; assay type: functional

Row | SMILES | Effect (Rattus norvegicus) | Ki (Estrogen receptor) | Increase [1] | Increase (Homo sapiens [2]) | Decrease (Homo sapiens [3]) | bioavailability (in vivo)
1 | Oc1ccc2c(c1)CN(c1ccc(OCCN3CCCCC3)cc1)c1c-2ccc2cc(O)ccc12 | inactive | 0.28 nM | – | – | – | –
2 | O=C(c1ccc(OCCN2CCCCC2)cc1)c1c(-c2ccc(O)cc2)sc2cc(O)ccc12 [RALOXIFENE] | – | – | 2.4% | 2.4% | 40% | 2%

Reference: ChEMBL document CHEMBL1136730, “Antiestrogens and selective estrogen receptor modulators as multifunctional medicines. 2. Clinical considerations and new agents” (J Med Chem, 2003)
